From patent publication US11596639B2, “Substituted indole Mcl-1 inhibitors” (Vanderbilt University, priority 2016, dated 2023)
Where two headings read alike, the source gives them in different places.

How the values were obtained:
[1] = molecular target: Mcl-1 (Homo sapiens (Human), UniProt Q07820); assay: Fluorescence polarization anisotropy (FPA) competition assay, FITC-Bak or FITC-Bim BH3 peptide; assay type: binding; conditions: read-out: Ki for Inhibition of Mcl-1 by FPA assay
[2] = test system: H929 human cancer cell lines; assay: Cellular viability / proliferation (Cell TiterGlo, 72 h); assay type: cell-based
How it was run: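 Plating is at 1,000 cells/well in 10% FBS medium; after 24 h, compound is added as a 2-fold series starting at 50 μM with under 1% DMSO.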

[3] = Homo sapiens, NCI-H929, 72 h, read-out: GI50 on cellular proliferation of H929 human cancer cell lines, H929 cells, 72 h, Cell TiterGlo, 10% FBS
[4] = read-out: GI50 on cellular proliferation of H929 human cancer cell lines, H929 cells, 72 h, Cell TiterGlo, 10% FBS

Chain of Mcl-1 (Q07820 172-327): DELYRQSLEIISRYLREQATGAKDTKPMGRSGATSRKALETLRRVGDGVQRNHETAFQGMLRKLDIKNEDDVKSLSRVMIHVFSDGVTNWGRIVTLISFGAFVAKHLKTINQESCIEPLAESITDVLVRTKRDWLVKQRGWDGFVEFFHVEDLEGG

| SMILES | Ki [1] [nM] | GI50 [2, 3] [nM] | GI50 [2, 4] [nM] | GI50 ([2]; H929 cells, 72 h, Cell TiterGlo, 10% FBS, read-out: GI50 on cellular proliferation of H929 human cancer cell lines) [nM] |
| --- | --- | --- | --- | --- |
| Cc1cc(OCCCc2c3n(c4c(-c5c(C)nn(C)c5C)c(Cl)ccc24)[C@H](C)CN(c2cccc4c(C(=O)O)c(C)n(C)c24)C3=O)cc(C)c1Cl [Example 417, (R)-7-(7-Chloro-10-(3-(4-chloro-3,5-dimethylphenoxy)propyl)-4-methyl-1-oxo-6-(1,3,5-trimethyl-1H-pyrazol-4-yl)-3,4-dihydropyrazino[1,2-a]indol-2(1H)-yl)-1,2-dimethyl-1H-indole-3-carboxylic acid] | 1.3 | 340 |  |  |
| Cc1cc(OCCCc2c3n(c4c(-c5c(C)nn(C)c5C)c(Cl)ccc24)[C@H](C)CN(c2cccc4cc(C(=O)O)n(CC5CC5)c24)C3=O)cc(C)c1Cl [Example 254, 7-[(4R)-7-chloro-10-[3-(4-chloro-3,5-dimethyl-phenoxy)propyl]-4-methyl-1-oxo-6-(1,3,5-trimethylpyrazol-4-yl)-3,4-dihydropyrazino[1,2-a]indol-2-yl]-1-(cyclopropylmethyl)indole-2-carboxylic acid] | < 1 | 580 |  |  |
| Cc1cc(OCCCc2c3n(c4c(-c5c(C)nn(C)c5C)c(Cl)ccc24)[C@H](C)CN(c2cn(C)c4ccc(C(=O)Nc5ccncc5)cc24)C3=O)cc(C)c1Cl [Example 283, 3-[(4R)-7-chloro-10-[3-(4-chloro-3,5-dimethyl-phenoxy)propyl]-4-methyl-1-oxo-6-(1,3,5-trimethylpyrazol-4-yl)-3,4-dihydropyrazino[1,2-a]indol-2-yl]-1-methyl-N-(4-pyridyl)indole-5-carboxamide] | 1.2 | 1200 |  |  |
| Cc1nnc(-c2ccc3c(c2)c(N2C[C@@H](C)n4c(c(CCCOc5cc(C)c(Cl)c(C)c5)c5ccc(Cl)c(-c6c(C)nn(C)c6C)c54)C2=O)cn3C)o1 [Example 337, (R)-7-Chloro-10-(3-(4-chloro-3,5-dimethylphenoxy)propyl)-4-methyl-2-(1-methyl-5-(5-methyl-1,3,4-oxadiazol-2-yl)-1H-indol-3-yl)-6-(1,3,5-trimethyl-1H-pyrazol-4-yl)-3,4-dihydropyrazino[1,2-a]indol-1(2H)-one] | 2.6 | 540 |  |  |
| Cc1cc(N2C[C@@H](C)n3c(c(CCCOc4cc(C)c(Cl)c(C)c4)c4ccc(Cl)c(-c5c(C)nn(C)c5C)c43)C2=O)c2c(c1)cc(C(N)=O)n2C [Example 332, (R)-7-(7-Chloro-10-(3-(4-chloro-3,5-dimethylphenoxy)propyl)-4-methyl-1-oxo-6-(1,3,5-trimethyl-1H-pyrazol-4-yl)-3,4-dihydropyrazino[1,2-a]indol-2(1H)-yl)-1,5-dimethyl-1H-indole-2-carboxamide] | 2.8 | 670 |  |  |
| Cc1cc(OCCCc2c3n(c4c(-c5c(C)nn(C)c5C)c(Cl)ccc24)[C@H](C)CN(c2ccc4c(c2)c(C(=O)O)cn4C)C3=O)cc(C)c1Cl [Example 171, (R)-5-(7-Chloro-10-(3-(4-chloro-3,5-dimethylphenoxy)propyl)-4-methyl-1-oxo-6-(1,3,5-trimethyl-1H-pyrazol-4-yl)-3,4-dihydropyrazino[1,2-a]indol-2(1H)-yl)-1-methyl-1H-indole-3-carboxylic acid] | < 1 | 1500 |  |  |
| Cc1cc(OCCCc2c3n(c4c(-c5c(C)nn(C)c5C)c(Cl)ccc24)[C@H](C)CN(c2cc(C(=O)O)cc4[nH]ccc24)C3=O)cc(C)c1Cl [Example 100, (R)-4-(7-chloro-10-(3-(4-chloro-3,5-dimethylphenoxy)propyl)-4-methyl-1-oxo-6-(1,3,5-trimethyl-1H-pyrazol-4-yl)-3,4-dihydropyrazino[1,2-a]indol-2(1H)-yl)-1H-indole-6-carboxylic acid] | < 1 | 5800 |  |  |
| COC(=O)c1ccc2c(c1)c(N1C[C@@H](C)n3c(c(CCCOc4cc(C)c(Cl)c(C)c4)c4ccc(Cl)c(-c5c(C)nn(C)c5C)c43)C1=O)cn2C (single isomer, unassigned) [Example 207] | < 1 |  | 750 |  |
| Cc1cc(OCCCc2c3n(c4c(-c5c(C)ncnc5C)c(Cl)ccc24)CCCN(c2cccc4cc(C(=O)O)ccc24)C3=O)cc(C)c1Cl [Example 213, 5-[8-Chloro-11-[3-(4-chloro-3,5-dimethyl-phenoxy)propyl]-7-(4,6-dimethylpyrimidin-5-yl)-1-oxo-4,5-dihydro-3H-[1,4]diazepino[1,2-a]indol-2-yl]naphthalene-2-carboxylic acid] | < 1 | < 200 |  |  |
| Cc1cc(N2C[C@@H](C)n3c(c(CCCOc4cc(C)c(Cl)c(C)c4)c4ccc(Cl)c(-c5c(C)nn(C)c5C)c43)C2=O)c2c(c1)c(C(=O)O)cn2C [Example 162, (R)-7-(7-chloro-10-(3-(4-chloro-3,5-dimethylphenoxy)propyl)-4-methyl-1-oxo-6-(1,3,5-trimethyl-1H-pyrazol-4-yl)-3,4-dihydropyrazino[1,2-a]indol-2(1H)-yl)-1,5-dimethyl-1H-indole-3-carboxylic acid] | < 1 |  | 260 |  |
| Cc1cc(OCCCc2c3n(c4c(-c5c(C)nn(C)c5C)c(Cl)ccc24)[C@H](C)CN(c2cn(C)c4cc(F)c(C(=O)O)cc24)C3=O)cc(C)c1Cl [Example 348, (P, R)-3-(7-Chloro-10-(3-(4-chloro-3,5-dimethylphenoxy)propyl)-4-methyl-1-oxo-6-(1,3,5-trimethyl-1H-pyrazol-4-yl)-3,4-dihydropyrazino[1,2-a]indol-2(1H)-yl)-6-fluoro-1-methyl-1H-indole-5-carboxylic acid] | 1.8 |  |  | 1300 |
| Cc1cc(OCCCc2c3n(c4c(-c5c(C)nn(C)c5C)c(Cl)ccc24)[C@H](C)CN(c2cn(C)c4ccc(C(=O)NCc5cccnc5)cc24)C3=O)cc(C)c1Cl [Example 287, 3-[(4R)-7-chloro-10-[3-(4-chloro-3,5-dimethyl-phenoxy)propyl]-4-methyl-1-oxo-6-(1,3,5-trimethylpyrazol-4-yl)-3,4-dihydropyrazino[1,2-a]indol-2-yl]-1-methyl-N-(3-pyridylmethyl)indole-5-carboxamide] | 3 | 1600 |  |  |
| Cc1cc(OCCCc2c3n(c4c(-c5c(C)nn(C)c5C)c(Cl)ccc24)[C@H](C)CN(c2cn(C)c4ccc(-c5nnn(C)n5)cc24)C3=O)cc(C)c1Cl [Example 350, (R)-7-Chloro-10-(3-(4-chloro-3,5-dimethylphenoxy)propyl)-4-methyl-2-(1-methyl-5-(2-methyl-2H-tetrazol-5-yl)-1H-indol-3-yl)-6-(1,3,5-trimethyl-1H-pyrazol-4-yl)-3,4-dihydropyrazino[1,2-a]indol-1(2H)-one] | < 1 | 300 |  |  |
| Cc1cc(OCCCc2c3n(c4c(-c5c(C)nn(C)c5C)c(Cl)ccc24)[C@H](C)CN(c2cn(C)c4ccc(C(=O)N(C)Cc5cccnc5)cc24)C3=O)cc(C)c1Cl [Example 282, 3-[(4R)-7-chloro-10-[3-(4-chloro-3,5-dimethyl-phenoxy)propyl]-4-methyl-1-oxo-6-(1,3,5-trimethylpyrazol-4-yl)-3,4-dihydropyrazino[1,2-a]indol-2-yl]-N,1-dimethyl-N-(3-pyridylmethyl)indole-5-carboxamide] | 8.4 | 2400 |  |  |
| Cc1cc(OCCCc2c3n(c4c(-c5c(C)n[nH]c5C)c(Cl)ccc24)CCCN(c2cc(C(=O)O)c4ccn(C)c4c2)C3=O)cc(C)c1Cl [Example 58, 6-(8-Chloro-11-(3-(4-chloro-3,5-dimethylphenoxy)propyl)-7-(3,5-dimethyl-1H-pyrazol-4-yl)-1-oxo-4,5-dihydro-1H-[1,4]diazepino[1,2-a]indol-2(3H)-yl)-1-methyl-1H-indole-4-carboxylic acid] | < 1 | 3000 |  |  |
| Cc1cc(OCCCc2c3n(c4c(-c5c(C)nn(C)c5C)c(Cl)ccc24)[C@H](C)CN(c2cccc4cc(C(=O)O)n(CCN(C)C)c24)C3=O)cc(C)c1Cl [Example 322, (R)-7-(7-Chloro-10-(3-(4-chloro-3,5-dimethylphenoxy)propyl)-4-methyl-1-oxo-6-(1,3,5-trimethyl-1H-pyrazol-4-yl)-3,4-dihydropyrazino[1,2-a]indol-2(1H)-yl)-1-(2-(dimethylamino)ethyl)-1H-indole-2-carboxylic acid] | 1.7 | 1800 |  |  |
| Cc1cc(OCCCc2c3n(c4c(-c5c(C)nn(C)c5C)c(Cl)ccc24)[C@H](C)CN(c2cn(C)c4cc(-c5nnco5)ccc24)C3=O)cc(C)c1Cl [Example 343, (R)-7-Chloro-10-(3-(4-chloro-3,5-dimethylphenoxy)propyl)-4-methyl-2-(1-methyl-6-(1,3,4-oxadiazol-2-yl)-1H-indol-3-yl)-6-(1,3,5-trimethyl-1H-pyrazol-4-yl)-3,4-dihydropyrazino[1,2-a]indol-1(2H)-one] | 3.7 | 3600 |  |  |
| Cc1cc(OCCCc2c3n(c4c(-c5c(C)ncnc5C)c(Cl)ccc24)CCCN(c2cccc4cc(C(=O)O)n(C)c24)C3=O)cc(C)c1Cl [Example 219, 7-[8-Chloro-11-[3-(4-chloro-3,5-dimethyl-phenoxy)propyl]-7-(4,6-dimethylpyrimidin-5-yl)-1-oxo-4,5-dihydro-3H-[1,4]diazepino[1,2-a]indol-2-yl]-1-methyl-indole-2-carboxylic acid] | 2.2 | 1200 |  |  |
| Cc1cc(OCCCc2c3n(c4c(-c5c(C)nn(C)c5C)c(Cl)ccc24)[C@H](C)CN(c2cn(CCN4CCOCC4)c4cc(C(N)=O)ccc24)C3=O)cc(C)c1Cl [Example 402, (R)-3-(7-Chloro-10-(3-(4-chloro-3,5-dimethylphenoxy)propyl)-4-methyl-1-oxo-6-(1,3,5-trimethyl-1H-pyrazol-4-yl)-3,4-dihydropyrazino[1,2-a]indol-2(1H)-yl)-1-(2-morpholinoethyl)-1H-indole-6-carboxamide] | 4.9 | 1100 |  |  |
